The source made the active and inactive calls. No cut-off for these calls is given here.
Tests used:
A549 = test: Antiproliferative activity against human A549 cells assessed as reduction in cell viability after 72 hrs by SRB assay; assay type: functional, cell-based; details: A549, 72 h
MDA-MB-231 [1] = test: Antiproliferative activity against human MDA-MB-231 cells assessed as reduction in cell viability after 72 hrs by SRB assay; assay type: functional, cell-based; details: MDA-MB-231, 72 h
MCF7 = test: Antiproliferative activity against human MCF7 cells assessed as reduction in cell viability after 72 hrs by SRB assay; assay type: functional, cell-based; details: MCF7, 72 h
KB = test: Antiproliferative activity against human KB cells assessed as reduction in cell viability after 72 hrs by SRB assay; assay type: functional, cell-based
[2] = Antiproliferative activity against human KB-VIN cells assessed as reduction in cell viability after 72 hrs by SRB assay; assay type: functional, cell-based; details: KBVIN
MDA-MB-231 [3] = test: Induction of cell cycle arrest in human MDA-MB-231 cells assessed as accumulation at S phase at 21 uM measured after 24 hrs by propidium iodide staining based flow cytometry analysis; assay type: functional
[4] = Selectivity ratio of IC50 for antiproliferative activity against human KB cells to IC50 for antiproliferative activity against KB-VIN cells; assay type: functional
[5] = tested on: Human immunodeficiency virus 1; test: Antiviral activity against HIV-1 NL4-3 infected in human MT4 cells measured on day 3 by Nano-Glo luciferase assay; assay type: functional, organism-based; details: time 3.0 day

| SMILES | IC50 (A549) [µM] | IC50 (MDA-MB-231 [1]) [µM] | IC50 (MCF7) [µM] | IC50 (KB) [µM] | IC50 [2] [µM] | Activity (MDA-MB-231 [3]) | Ratio IC50 [4] | Activity [5] |
| --- | --- | --- | --- | --- | --- | --- | --- | --- |
| CC(C)[C@@H]1NC(=O)[C@@H](NC(=O)/C=C/c2ccccc2)[C@H](C(C)C)Oc2ccc(cc2)/C=C\NC1=O | > 10 | > 10 | > 10 | > 10 | > 10 |  |  |  |
| COc1ccccc1[C@]1(O)c2ccc3nc(C)c4c(c3c2[C@@H]2CC[C@H]1O2)OCO4 | > 10 | > 10 | > 10 | > 10 | > 10 |  |  |  |
| CC1=CC(=O)CC(C)(C)[C@@]1(O)/C=C/[C@@H](C)O [BLUMENOL A] | > 10 | > 10 | > 10 | > 10 | > 10 |  |  |  |
| CC1(C)C[C@H](O)C[C@@]2(C)OC(=O)C=C12 [LOLIOLIDE] | > 10 | > 10 | > 10 | > 10 | > 10 |  |  |  |
| CCCCCCCCc1ccc(OC)c2[nH]c(C)c(OC)c(=O)c12 | > 10 | > 10 | > 10 | > 10 | > 10 |  |  |  |
| CC(=O)/C=C/[C@]1(O)C(C)(C)C[C@H](O)C[C@@]1(C)O | > 10 | > 10 | > 10 | > 10 | > 10 |  |  |  |
| COc1ccc(OC)c([C@@]2(O)c3ccc4nc(C)c5c(c4c3[C@@H]3CC[C@H]2O3)OCO5)c1 | > 10 | > 10 | > 10 | > 10 | > 10 |  |  | inactive |
| Cc1nc2ccc3c(c2c2c1OCO2)[C@@H]1CC[C@H](O)[C@@]3(c2ccccc2)O1 | > 10 | > 10 | > 10 | > 10 | > 10 |  |  | inactive |

Continued, in another order:

| IC50 (A549) [µM] | IC50 (MDA-MB-231 [1]) [µM] | IC50 (MCF7) [µM] | IC50 (KB) [µM] | SMILES | IC50 [2] [µM] | Activity (MDA-MB-231 [3]) | Ratio IC50 [4] | Activity [5] |
| --- | --- | --- | --- | --- | --- | --- | --- | --- |
| 8.4 | 6.7 | 6.4 | 17.7 | CCCCCCCC[C@H]1CCC(=O)c2[nH]c(C)c(OC)c(=O)c21 | 8.6 | Active | 2 |  |
| > 10 | > 10 | > 10 | > 10 | COc1ccccc1[C@@]1(O)c2ccc3nc(C)c4c(c3c2[C@@H]2CC[C@H]1O2)OCO4 | > 10 |  |  | inactive |
| 6.6 | > 10 | 8 | > 10 | COc1ccccc1[C@@]1(O)c2ccc3[nH]c(C)c(OC)c(=O)c3c2[C@@H]2CC[C@H]1O2 | > 10 |  |  |  |
| > 10 | > 10 | > 10 | > 10 | CC1=CC(=O)CC(C)(C)[C@@H]1CC[C@H](C)O | > 10 |  |  |  |
| > 10 | > 10 | > 10 | > 10 | COc1ccc(OC)c([C@]2(O)c3ccc4nc(C)c5c(c4c3[C@@H]3CC[C@H]2O3)OCO5)c1 | > 10 |  |  |  |
| 0.0065 |  | 0.0135 | 0.0077 | CC(=O)O[C@H]1C(=O)[C@@]2(C)[C@H]([C@H](OC(=O)c3ccccc3)[C@]3(O)C[C@H](OC(=O)[C@H](O)[C@@H](NC(=O)c4ccccc4)c4ccccc4)C(C)=C1C3(C)C)[C@]1(OC(C)=O)CO[C@@H]1C[C@@H]2O [PACLITAXEL] | 2.35 |  |  |  |
| 9.5 | > 10 | > 10 | > 10 | CC[C@@H](C)[C@@H]1NC(=O)[C@@H](NC(=O)[C@H](Cc2ccccc2)N(C)C)[C@H](C(C)C)Oc2ccc(cc2)/C=C\NC1=O | > 10 |  |  |  |
| 5.9 | > 10 | 8.2 | > 10 | COc1ccc(OC)c([C@@]2(O)c3ccc4[nH]c(C)c(OC)c(=O)c4c3[C@@H]3CC[C@H]2O3)c1 | > 10 |  |  |  |

Source: ChEMBL document CHEMBL4665825, “Paliasanines A-E, 3,4-Methylenedioxyquinoline Alkaloids Fused with a Phenyl-14-oxabicyclo[3.2.1]octane Unit from Melochia umbellata var. deglabrata” (J Nat Prod, 2020)
